Assay [1] deals with T1, FGFR2 (Homo sapiens, UniProt P21802).
T1 construct: purchased Carna 08-134
Description: FGFR2 Biochemical Caliper Assay (KinEASE-TK kit). The settings on record: 0.07 nM FGFR2; compound incubated with protein 10 min, reaction 45 min at RT; read-out: FGFR2 Cliper IC50.

For assay [2], the target named is T2, FGFR1 (Homo sapiens, UniProt P11362).
T2 construct: purchased Carna 08-133
The assay can be described thus: FGFR1 Biochemical Caliper Assay (KinEASE-TK kit). The following applies: ratio FGFR1/FGFR2 of the biochemical assay. The method in brief:
(§1)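 KinEASE-TK HTRF readout: enzyme at 0.2 nM (FGFR1, FGFR3) preincubated 10 min at RT with 10-point 3-fold compound dilutions before TK-substrate/ATP start.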

The target in assay [3] is T3, FGFR3 (Homo sapiens, UniProt P22607).
T3 construct: purchased Carna 08-135
T3 sequence (P22607 23-806): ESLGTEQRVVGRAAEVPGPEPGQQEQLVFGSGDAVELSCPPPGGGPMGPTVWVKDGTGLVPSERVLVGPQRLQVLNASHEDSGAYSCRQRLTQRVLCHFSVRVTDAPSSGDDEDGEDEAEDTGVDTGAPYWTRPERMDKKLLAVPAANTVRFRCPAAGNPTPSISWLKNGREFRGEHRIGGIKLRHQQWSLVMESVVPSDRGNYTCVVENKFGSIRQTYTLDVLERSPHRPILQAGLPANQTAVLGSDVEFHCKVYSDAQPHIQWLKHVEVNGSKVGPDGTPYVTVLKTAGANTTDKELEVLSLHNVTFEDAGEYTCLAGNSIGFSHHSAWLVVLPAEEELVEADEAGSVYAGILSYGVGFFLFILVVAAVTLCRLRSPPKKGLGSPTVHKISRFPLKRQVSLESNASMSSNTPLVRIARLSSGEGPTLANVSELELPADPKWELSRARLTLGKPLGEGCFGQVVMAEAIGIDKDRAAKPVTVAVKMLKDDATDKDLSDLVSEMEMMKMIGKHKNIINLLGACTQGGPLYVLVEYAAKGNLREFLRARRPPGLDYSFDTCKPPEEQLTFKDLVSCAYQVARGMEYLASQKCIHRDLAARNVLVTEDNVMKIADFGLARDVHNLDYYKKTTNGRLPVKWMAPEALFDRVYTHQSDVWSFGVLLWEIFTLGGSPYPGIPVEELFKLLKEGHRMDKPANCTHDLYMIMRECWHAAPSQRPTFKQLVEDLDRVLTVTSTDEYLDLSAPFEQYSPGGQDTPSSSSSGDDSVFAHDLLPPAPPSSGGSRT
The assay can be described thus: FGFR3 Biochemical Caliper Assay (KinEASE-TK kit). The following applies: ratio FGFR3/FGFR2 of the biochemical assay. The procedure, abridged: as §1

The test system of assay [4] is SNU16 cells. Description: SNU16 Cancer Cell Line Proliferation Assay (CellTiter-Glo). It is filed as cell-based. The procedure, abridged: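 Luminescent ATP read-out after 72 h at 37 °C gave IC50 values; compounds tested as 9 three-fold serial dilutions on 5000 SNU16 cells per well, with DMSO as control.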

Each structure is given as a SMILES string. Like-named read-outs stand apart in the source and are kept apart here.

T1 sequence (P21802 22-821): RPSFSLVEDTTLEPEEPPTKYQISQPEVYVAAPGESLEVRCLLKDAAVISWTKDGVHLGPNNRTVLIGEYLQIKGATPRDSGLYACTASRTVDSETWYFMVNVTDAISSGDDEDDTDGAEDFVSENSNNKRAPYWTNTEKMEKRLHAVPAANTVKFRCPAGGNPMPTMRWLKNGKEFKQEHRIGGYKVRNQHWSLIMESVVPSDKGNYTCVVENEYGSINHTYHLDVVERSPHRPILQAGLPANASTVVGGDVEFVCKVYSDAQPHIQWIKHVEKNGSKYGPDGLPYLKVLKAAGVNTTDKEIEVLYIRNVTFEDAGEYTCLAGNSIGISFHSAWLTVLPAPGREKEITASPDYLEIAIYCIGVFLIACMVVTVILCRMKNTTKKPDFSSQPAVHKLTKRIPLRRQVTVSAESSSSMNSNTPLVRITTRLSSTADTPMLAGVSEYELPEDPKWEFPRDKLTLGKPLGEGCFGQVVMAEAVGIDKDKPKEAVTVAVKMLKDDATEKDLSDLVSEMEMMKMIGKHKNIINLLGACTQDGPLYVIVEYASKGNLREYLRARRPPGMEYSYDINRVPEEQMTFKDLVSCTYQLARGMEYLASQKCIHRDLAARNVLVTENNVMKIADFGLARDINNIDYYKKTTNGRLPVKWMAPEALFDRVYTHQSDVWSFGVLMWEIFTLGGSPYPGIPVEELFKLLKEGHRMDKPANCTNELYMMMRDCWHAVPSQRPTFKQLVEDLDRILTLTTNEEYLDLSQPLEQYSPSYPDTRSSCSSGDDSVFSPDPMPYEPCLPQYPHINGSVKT
T2 sequence (P11362 22-822): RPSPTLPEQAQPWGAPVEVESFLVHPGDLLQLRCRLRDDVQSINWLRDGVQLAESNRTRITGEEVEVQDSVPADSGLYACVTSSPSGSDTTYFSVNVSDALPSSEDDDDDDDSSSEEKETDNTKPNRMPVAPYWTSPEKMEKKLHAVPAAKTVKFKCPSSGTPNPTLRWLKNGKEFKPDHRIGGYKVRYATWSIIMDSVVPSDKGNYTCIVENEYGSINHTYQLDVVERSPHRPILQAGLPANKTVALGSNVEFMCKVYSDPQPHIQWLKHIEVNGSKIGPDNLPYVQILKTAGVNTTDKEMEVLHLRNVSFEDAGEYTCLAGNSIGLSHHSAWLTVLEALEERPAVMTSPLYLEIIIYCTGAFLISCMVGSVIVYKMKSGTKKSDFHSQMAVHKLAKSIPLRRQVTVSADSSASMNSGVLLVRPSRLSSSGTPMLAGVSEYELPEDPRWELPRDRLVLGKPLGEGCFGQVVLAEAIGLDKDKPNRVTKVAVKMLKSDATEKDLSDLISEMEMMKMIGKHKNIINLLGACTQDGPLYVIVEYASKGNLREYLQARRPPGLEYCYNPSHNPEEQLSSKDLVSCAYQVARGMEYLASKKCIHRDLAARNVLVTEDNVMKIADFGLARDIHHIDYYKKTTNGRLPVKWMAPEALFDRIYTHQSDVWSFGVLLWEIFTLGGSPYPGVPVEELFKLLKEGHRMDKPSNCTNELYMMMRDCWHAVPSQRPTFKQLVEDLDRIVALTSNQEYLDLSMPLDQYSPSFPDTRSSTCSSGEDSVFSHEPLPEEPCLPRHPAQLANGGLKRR

In general, IC50 refers to the concentration needed to halve the response being measured. Regarding `C=CC(=O)Nc1ccc(-c2nn3ncnc(N)c3c2-c2ccc(C(=O)NC3CC(F)(F)C3)c(OC)c2)cc1` [Compound 98, 4-(6-(4-acrylamidophenyl)-4-aminopyrazolo[5,1-f] [1,2,4]triazin-5-yl)-N-(3,3-difluorocyclobutyl)-2-methoxybenzamide], the IC50 in assay [1] is below 5 nM; in assay [4] (Homo sapiens, SNU-16, 72 h) it was at most 10 nM. Also, in assay [2], the “Selectivity FGFR1/FGFR2” value is recorded as “A+ (Selectivity of FGFR1/FGFR2 greater or equal to 500)”. Also, the “Selectivity FGFR3/FGFR2” value in assay [3] is reported as “A+ (Selectivity of FGFR3/FGFR2 greater or equal to 150)”.
The like results for `C=C(C)C(=O)Nc1ccc(-c2c(-c3ccc(Oc4nccc(C)n4)cc3)c3c(N)ncc(C#N)c3n2C)c(F)c1` [Compound 467, N-(4-(4-amino-7-cyano-1-methyl-3-(4-((4-methylpyrimidin-2-yl)oxy)phenyl)-1H-pyrrolo[3,2-c]pyridin-2-yl)-3-fluorophenyl) methacrylamide] were, in that order, above 10 nM, at most 10 nM, “A+ (Selectivity of FGFR1/FGFR2 greater or equal to 500)” and “A+ (Selectivity of FGFR3/FGFR2 greater or equal to 150)”.
The corresponding values for `C=CC(=O)Nc1ccc(-c2c(-c3ccc(C(=O)NC4CCC4)c(OC)c3)c3c(N)ncc(C#N)c3n2CCOC)cc1` [Compound 59, 4-(2-(4-acrylamidophenyl)-4-amino-7-cyano-1-(2-methoxyethyl)-1H-pyrrolo[3,2-c]pyridin-3-yl)-N-cyclobutyl-2-methoxybenzamide] are below 5 nM, at most 10 nM, “A (Selectivity of FGFR1/FGFR2 less than 500 but greater than or equal to 300)” and “A (Selectivity of FGFR3/FGFR2 less than 150 but greater than or equal to 100)”.
As to `C=C(F)C(=O)Nc1ccc(-c2nn3ncnc(N)c3c2-c2ccc(C(=O)NCC(F)F)c(OC)c2)c(F)c1` [Compound 289], the IC50 was above 10 nM in assay [1] and at most 10 nM in assay [4] (Homo sapiens, SNU-16, 72 h). Also, the “Selectivity FGFR1/FGFR2” value in assay [2] was “C (Selectivity of FGFR1/FGFR2 less than 200 but greater than or equal to 100)”. Besides, in assay [3], the “Selectivity FGFR3/FGFR2” value is recorded as “B (Selectivity of FGFR3/FGFR2 less than 100 but greater than or equal to 25)”.
In the case of `C=CC(=O)Nc1ccc(-c2c(-c3ccc(C(=O)NCC(F)(F)F)c(OC)c3)c3c(N)ncc(C#N)c3n2C2CC2)cc1` [Compound 351], the IC50 in assay [1] is below 5 nM; in assay [4] (Homo sapiens, SNU-16, 72 h), at most 10 nM. Also, the “Selectivity FGFR1/FGFR2” value in assay [2] is “A+ (Selectivity of FGFR1/FGFR2 greater or equal to 500)”. The “Selectivity FGFR3/FGFR2” value in assay [3] was “B (Selectivity of FGFR3/FGFR2 less than 100 but greater than or equal to 25)”.
Take `C=C(F)C(=O)Nc1ccc(-c2nn3ncnc(N)c3c2-c2ccc(C(=O)NCC3(C(F)(F)F)CC3)c(OC)c2)c(F)c1` [Compound 358, 4-(4-amino-6-(2-fluoro-4-(2-fluoroacrylamido)phenyl)pyrazolo[5,1-f] [1,2,4]triazin-5-yl)-2-methoxy-N-((1-(trifluoromethyl)cyclo-propyl)methyl) benzamide]: the IC50 in assay [1] was below 5 nM; in assay [4] (72 h, read-out: Cell SNU-16 IC50), at most 10 nM. Further, the “Selectivity FGFR1/FGFR2” value in assay [2] is “A+ (Selectivity of FGFR1/FGFR2 greater or equal to 500)”. The “Selectivity FGFR3/FGFR2” value in assay [3] is on record as “A (Selectivity of FGFR3/FGFR2 less than 150 but greater than or equal to 100)”.
Turning to `C=CC(=O)Nc1ccc(-c2[nH]c3c(C#N)cnc(N)c3c2-c2ccc(C(=O)NC3CC3)c(OC)c2)cc1` [Compound 23, 4-(2-(4-acrylamidophenyl)-4-amino-7-cyano-1H-pyrrolo[3,2-c]pyridin-3-yl)-N-cyclopropyl-2-methoxybenzamide], the IC50 in assay [1] was below 5 nM; in assay [4] (Homo sapiens, SNU-16, 72 h) it was at most 10 nM. In assay [2], the “Selectivity FGFR1/FGFR2” value is “A+ (Selectivity of FGFR1/FGFR2 greater or equal to 500)”. Also, the “Selectivity FGFR3/FGFR2” value in assay [3] is on record as “A (Selectivity of FGFR3/FGFR2 less than 150 but greater than or equal to 100)”.
As for `C=CC(=O)Nc1ccc(-c2c(-c3ccc(C(=O)NC4CC4)c(OC)c3)c3c(N)ncc(C#N)c3n2CC(F)(F)F)cc1` [Compound 342], the IC50 is below 5 nM in assay [1] and at most 10 nM in assay [4] (Homo sapiens, SNU-16, 72 h). The “Selectivity FGFR1/FGFR2” value in assay [2] is “B (Selectivity of FGFR1/FGFR2 less than 300 but greater than or equal to 200)”. Moreover, the “Selectivity FGFR3/FGFR2” value in assay [3] is recorded as “A+ (Selectivity of FGFR3/FGFR2 greater or equal to 150)”.
The corresponding values for `C=C(F)C(=O)Nc1ccc(-c2nn3ncnc(N)c3c2-c2ccc(C(=O)NC34CC(C3)C4)c(OC)c2)c(OC)c1` [Compound 426, 4-(4-amino-6-(4-(2-fluoroacrylamido)-2-methoxyphenyl)pyrazolo[5,1-f][1,2,4]triazin-5-yl)-N-(bicyclo[1.1.1]pentan-1-yl)-2-methoxybenzamide] are below 5 nM, at most 10 nM, “A+ (Selectivity of FGFR1/FGFR2 greater or equal to 500)” and “A (Selectivity of FGFR3/FGFR2 less than 150 but greater than or equal to 100)”.
On to `C=C(C)C(=O)Nc1ccc(-c2c(-c3ccc(Oc4nccc(C)n4)cc3)c3c(N)ncc(C#N)c3n2C)c(C)c1` [Compound 488, N-(4-(4-amino-7-cyano-1-methyl-3-(4-((4-methylpyrimidin-2-yl)oxy)phenyl)-1H-pyrrolo[3,2-c]pyridin-2-yl)-3-methylphenyl)methacrylamide], for which the IC50 was above 10 nM in assay [1] and at most 10 nM in assay [4] (Homo sapiens, SNU-16, 72 h). Moreover, the “Selectivity FGFR1/FGFR2” value in assay [2] is listed as “A+ (Selectivity of FGFR1/FGFR2 greater or equal to 500)”. Also, the “Selectivity FGFR3/FGFR2” value in assay [3] is given as “A+ (Selectivity of FGFR3/FGFR2 greater or equal to 150)”.
Turning to `C=CC(=O)Nc1ccc(-c2nn3ncnc(N)c3c2-c2ccc(Oc3nccc(NC)n3)c(F)c2)cc1` [Compound 433, N-(4-(4-amino-5-(3-fluoro-4-((4-(methylamino)pyrimidin-2-yl)oxy)phenyl)pyrazolo[5,1-f][1,2,4]triazin-6-yl)phenyl) acrylamide], the IC50 was 5 to 10 nM in assay [1] and at most 10 nM in assay [4] (Homo sapiens, SNU-16, 72 h). Further, the “Selectivity FGFR1/FGFR2” value in assay [2] is given as “A+ (Selectivity of FGFR1/FGFR2 greater or equal to 500)”. For the same compound, the “Selectivity FGFR3/FGFR2” value in assay [3] is given as “A+ (Selectivity of FGFR3/FGFR2 greater or equal to 150)”.
Regarding `C=CC(=O)Nc1ccc(-c2c(-c3ccc(C(=O)NC4CC4)c(OC)c3)c3c(N)ncc(C#N)c3n2CCF)cc1` [Compound 236, 4-(2-(4-acrylamidophenyl)-4-amino-7-cyano-1-(2-fluoroethyl)-1H-pyrrolo[3,2-c]pyridin-3-yl)-N-cyclopropyl-2-methoxybenzamide], the IC50 in assay [1] is below 5 nM; in assay [4] (Homo sapiens, SNU-16, 72 h), at most 10 nM. Besides, the “Selectivity FGFR1/FGFR2” value in assay [2] is listed as “A+ (Selectivity of FGFR1/FGFR2 greater or equal to 500)”. For the same compound, the “Selectivity FGFR3/FGFR2” value in assay [3] is on record as “A (Selectivity of FGFR3/FGFR2 less than 150 but greater than or equal to 100)”.
Take `C=CC(=O)Nc1ccc(-c2nn3ncnc(N)c3c2-c2ccc(C(=O)NCC3(C#N)CC3)c(OC)c2)cc1` [Compound 47, 4-(6-(4-acrylamidophenyl)-4-aminopyrazolo[5,1-f] [1,2,4]triazin-5-yl)-N-((1-cyanocyclopropyl)methyl)-2-methoxybenzamide]: the IC50 in assay [1] was below 5 nM; in assay [4] (Homo sapiens, SNU-16, 72 h), at most 10 nM. The “Selectivity FGFR1/FGFR2” value in assay [2] is “B (Selectivity of FGFR1/FGFR2 less than 300 but greater than or equal to 200)”. Besides, the “Selectivity FGFR3/FGFR2” value in assay [3] is on record as “B (Selectivity of FGFR3/FGFR2 less than 100 but greater than or equal to 25)”.
The corresponding values for `C=C(F)C(=O)Nc1ccc(-c2c(-c3ccc(C(=O)NC4CCC4)cc3)c3c(N)ncc(C#N)c3n2C)cc1` [Compound 97, 4-(4-amino-7-cyano-2-(4-(2-fluoroacrylamido)phe-nyl)-1-methyl-1H-pyrrolo[3,2-c]pyridin-3-yl)-N-cyclobutylbenzamide] are 5 to 10 nM, at most 10 nM, “A+ (Selectivity of FGFR1/FGFR2 greater or equal to 500)” and “A+ (Selectivity of FGFR3/FGFR2 greater or equal to 150)”.
Regarding `C=CC(=O)Nc1ccc(-c2c(-c3ccc(Oc4nccc(C)n4)cc3)c3c(N)ncc(C#N)c3n2C)cc1` [Compound 69, N-(4-(4-amino-7-cyano-1-methyl-3-(4-((4-methylpyrimidin-2-yl)oxy)phenyl)-1H-pyrrolo[3,2-c]pyridin-2-yl)phenyl)acrylamide], the IC50 in assay [1] is below 5 nM; in assay [4] (Homo sapiens, SNU-16, 72 h), at most 10 nM. For the same compound, the “Selectivity FGFR1/FGFR2” value in assay [2] is given as “A (Selectivity of FGFR1/FGFR2 less than 500 but greater than or equal to 300)”. Besides, the “Selectivity FGFR3/FGFR2” value in assay [3] was “B (Selectivity of FGFR3/FGFR2 less than 100 but greater than or equal to 25)”.
Consider `C=C(C)C(=O)Nc1ccc(-c2c(-c3ccc(Oc4cccc(C)n4)cc3)c3c(N)ncc(C#N)c3n2C)c(F)c1` [Compound 468, N-(4-(4-amino-7-cyano-1-methyl-3-(4-((6-methylpyridin-2-yl)oxy)phenyl)-1H-pyrrolo[3,2-c]pyridin-2-yl)-3-fluorophenyl) methacrylamide], for which the IC50 is above 10 nM in assay [1] and at most 10 nM in assay [4] (Homo sapiens, SNU-16, 72 h). Moreover, the “Selectivity FGFR1/FGFR2” value in assay [2] is given as “A+ (Selectivity of FGFR1/FGFR2 greater or equal to 500)”. Moreover, in assay [3], the “Selectivity FGFR3/FGFR2” value is recorded as “A+ (Selectivity of FGFR3/FGFR2 greater or equal to 150)”.
